Measurements from ChEMBL document CHEMBL1156116, “Histone deacetylase and microtubules as targets for the synthesis of releasable conjugate compounds” (Bioorg Med Chem Lett, 2009).
Activity calls are given as the source filed them. The calls are words filed in the database; no cut-off is given here.

Experiments:
[1] = tested on: IGROV-1; experiment: Antiproliferative activity against human IGROV1 cells assessed as growth inhibition after 72 hrs by Coulter counting analysis; assay type: functional, cell-based; conditions: IGROV-1, 72 h
[2] = molecular target: T1, Protein deacetylase HDAC6 (Homo sapiens) (UniProt Q9UBN7); experiment: Inhibition of human HDAC6 in human IGROV1 cells assessed as alpha-tubulin acetylation at 0.1 uM after 48 hrs by Western blot analysis; assay type: cell-based; conditions: IGROV-1
T1 sequence (whole entry): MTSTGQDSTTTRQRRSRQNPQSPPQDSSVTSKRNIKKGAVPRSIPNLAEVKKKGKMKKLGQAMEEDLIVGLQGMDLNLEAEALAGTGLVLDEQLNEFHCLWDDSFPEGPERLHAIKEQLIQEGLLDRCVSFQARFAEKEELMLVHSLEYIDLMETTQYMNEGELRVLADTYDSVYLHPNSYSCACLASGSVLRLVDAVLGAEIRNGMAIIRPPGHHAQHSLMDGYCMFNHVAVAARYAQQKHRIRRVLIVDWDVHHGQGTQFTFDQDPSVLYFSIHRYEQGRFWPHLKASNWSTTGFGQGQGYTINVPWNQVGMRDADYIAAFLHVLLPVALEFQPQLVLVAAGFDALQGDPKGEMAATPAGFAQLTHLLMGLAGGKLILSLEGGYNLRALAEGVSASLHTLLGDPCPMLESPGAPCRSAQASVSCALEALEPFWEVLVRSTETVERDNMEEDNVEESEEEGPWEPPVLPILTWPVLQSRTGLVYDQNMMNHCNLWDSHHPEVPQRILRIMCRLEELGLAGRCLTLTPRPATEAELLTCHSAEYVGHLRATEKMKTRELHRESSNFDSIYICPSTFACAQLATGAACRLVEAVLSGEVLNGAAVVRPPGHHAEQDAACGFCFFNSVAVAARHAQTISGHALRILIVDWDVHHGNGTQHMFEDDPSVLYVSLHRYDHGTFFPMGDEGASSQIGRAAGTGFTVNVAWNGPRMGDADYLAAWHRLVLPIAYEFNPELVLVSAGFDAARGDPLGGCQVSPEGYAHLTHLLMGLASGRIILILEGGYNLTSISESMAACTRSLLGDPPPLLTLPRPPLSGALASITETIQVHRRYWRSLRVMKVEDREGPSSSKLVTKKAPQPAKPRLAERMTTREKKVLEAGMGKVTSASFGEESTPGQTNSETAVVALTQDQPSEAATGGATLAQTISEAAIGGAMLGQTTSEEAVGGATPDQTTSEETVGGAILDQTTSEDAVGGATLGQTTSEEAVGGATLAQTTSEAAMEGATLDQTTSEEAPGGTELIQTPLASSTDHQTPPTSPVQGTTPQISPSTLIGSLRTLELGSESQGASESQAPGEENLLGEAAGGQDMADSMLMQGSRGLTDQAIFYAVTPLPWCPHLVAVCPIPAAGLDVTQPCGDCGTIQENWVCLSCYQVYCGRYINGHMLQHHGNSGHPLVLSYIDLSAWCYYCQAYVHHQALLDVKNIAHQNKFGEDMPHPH

[3] = molecular target: Histone deacetylase 1 (Homo sapiens) (UniProt Q13547); experiment: Inhibition of human HDAC1 in human IGROV1 cells assessed as histone H4 acetylation at 0.1 uM after 4 hrs by Western blot analysis; assay type: cell-based; conditions: IGROV-1
Sequence of Histone deacetylase 1 (Homo sapiens) (Q13547 whole entry): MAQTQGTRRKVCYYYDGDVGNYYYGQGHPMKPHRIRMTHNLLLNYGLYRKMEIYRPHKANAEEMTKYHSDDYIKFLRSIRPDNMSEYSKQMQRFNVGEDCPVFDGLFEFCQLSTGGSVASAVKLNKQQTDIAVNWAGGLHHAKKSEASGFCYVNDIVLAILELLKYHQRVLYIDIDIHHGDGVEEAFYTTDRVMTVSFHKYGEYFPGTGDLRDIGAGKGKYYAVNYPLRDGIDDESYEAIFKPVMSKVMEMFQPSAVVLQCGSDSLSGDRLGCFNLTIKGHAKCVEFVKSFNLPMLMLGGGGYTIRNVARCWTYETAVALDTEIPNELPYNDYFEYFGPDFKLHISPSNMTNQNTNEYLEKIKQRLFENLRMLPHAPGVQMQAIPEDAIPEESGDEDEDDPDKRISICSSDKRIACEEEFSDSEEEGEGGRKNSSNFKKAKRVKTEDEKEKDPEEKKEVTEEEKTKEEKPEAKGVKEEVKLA

[4] = molecular target: Histone deacetylase 1 (Homo sapiens) (UniProt Q13547); experiment: Inhibition of human HDAC1 in human IGROV1 cells assessed as histone H4 acetylation after 4 hrs by Western blot analysis; assay type: cell-based; conditions: IGROV-1
[5] = molecular target: T1, Protein deacetylase HDAC6 (Homo sapiens); experiment: Inhibition of human HDAC6 in human IGROV1 cells assessed as alpha-tubulin acetylation after 4 hrs by Western blot analysis; assay type: cell-based; conditions: IGROV-1
[6] = tested on: IGROV-1; experiment: Induction of apoptosis in human IGROV1 cells at IC80 concentration by TUNEL assay; assay type: functional
[7] = molecular target: T1, Protein deacetylase HDAC6 (Homo sapiens); experiment: Inhibition of human HDAC6 in human IGROV1 cells assessed as alpha-tubulin acetylation at 0.33 to 0.1 uM after 48 hrs by Western blot analysis; assay type: cell-based; conditions: IGROV-1

| Compound | IC50 [1] | other results |
| --- | --- | --- |
| C/C=C(\C)C(=O)N[C@@H](c1ccccc1)[C@@H](O)C(=O)O[C@H]1C[C@@]2(O)[C@@H](OC(=O)c3ccccc3)[C@@H]3[C@]4(OC(C)=O)CO[C@@H]4C[C@H](O)[C@@]3(C)C(=O)[C@H](OC(C)=O)C(=C1C)C2(C)C [CEPHALOMANNINE] | 300 nM |  |
| COc1cc2c(c(OC)c1OC)-c1ccc(SC)c(=O)cc1[C@@H](NC(=O)CCCSSCCCC(=O)N[C@H]1CCc3cc(OC)c(OC)c(OC)c3-c3ccc(SC)c(=O)cc31)CC2 | 50 nM | inhibition [2]: Active; inhibition [3]: Active |
| COc1cc2c(c(OC)c1OC)-c1ccc(SC)c(=O)cc1[C@@H](NC(=O)CCCSSCCCC(=O)O)CC2 | 19 nM |  |
| O=C(/C=C/c1ccc(CNCc2ccccc2)cc1)NO | 480 nM | inhibition [4]: Dose-dependent effect; inhibition [5]: Dose-dependent effect |
| CC(=O)O[C@H]1C(=O)[C@@]2(C)[C@H]([C@H](OC(=O)c3ccccc3)[C@]3(O)C[C@H](OC(=O)[C@H](O)[C@@H](NC(=O)c4ccccc4)c4ccccc4)C(C)=C1C3(C)C)[C@]1(OC(C)=O)CO[C@@H]1C[C@@H]2O [PACLITAXEL] | 60 nM |  |
| COc1cc2c(c(OC)c1OC)-c1ccc(SC)c(=O)cc1[C@@H](NC(=O)CCCSSCCCC(=O)OCCN(Cc1ccccc1)Cc1ccc(/C=C/C(=O)NO)cc1)CC2 | 78 nM | Activity [6]: 45%; inhibition [7]: Active |
| O=C(/C=C/c1ccc(CN(CCO)Cc2ccccc2)cc1)NO | 18 nM | inhibition [4]: Dose-dependent effect; inhibition [5]: Dose-dependent effect |
| CC(C)(C)OC(=O)N(Cc1ccccc1)Cc1ccc(/C=C/C(=O)NOC2CCCCO2)cc1 (configuration not stated) | 41000 nM |  |
| CC(C)(C)OC(=O)N(Cc1ccccc1)Cc1ccc(/C=C/C(=O)NO)cc1 | 19100 nM |  |
